Measured values reported in patent US9957236B2, “Selective inhibitors interfering with fibroblast growth factor receptor and FRS2 interaction for the prevention and treatment of cancer and other diseases” (LIMITED LIABILITY COMPANY “RUSSIAN PHARMACEUTICAL …, priority 2014, dated 2018).
pIC50: −log10 of the molar value. Blank lines part the entries; values can stand above or below the molecule they belong to.

Tests used:
HUVEC = experiment: Proliferation of endothelial cells HUVEC with FGF-2; assay type: cell-based; conditions: Homo sapiens, FGF-2 25 ng/ml, 96 hours, read-out: Cell growth suppression, IC50
Experimental: Endothelial cells HUVEC were sawn in 96-cavity plates and cultivate for 24 hours. After that, the following was added to the cells: • 1) inhibitor RPT835, or • 2) inhibitor described by Formula IX in this invention, or • 3) brivanib—multi-kinase inhibitor of FGFR/VEGFR, and also to all cells—FGF-2 in a concentration of 25 ng/ml.
The cells were cultivated for 96 hours in general and then were calculated.

[1] = tested on: collagen-induced arthritis; experiment: Collagen-induced arthritis model; assay type: in vivo; conditions: mice, 100 mg/kg through a tube for 40 days
Experimental: Collagen-induced arthritis model was used in the research. Arthritic was induced in mice by intradermal injections of collagen of the II type combined with Freund's adjuvant. The mice were randomized into 2 groups of 5 animals in each one: • group 1: control, water through a tube for 40 days. • group 2: inhibitor described by formula III in this invention, 100 mg/kg, through a tube for 40 days. On the 40 day, the mice were subjected to euthanasia, the tissue was studied.

FRS2 [2] = molecular target: T1, FRS2 (Homo sapiens, UniProt Q8WU20); experiment: FRS2 phosphorylation in FGF-2-stimulated Snu16 cells (Western blotting); assay type: cell-based; parameters: endogenous in cells; host or cells: Snu16; conditions: FGF-2 stimulation
T1 sequence (Q8WU20 1-508): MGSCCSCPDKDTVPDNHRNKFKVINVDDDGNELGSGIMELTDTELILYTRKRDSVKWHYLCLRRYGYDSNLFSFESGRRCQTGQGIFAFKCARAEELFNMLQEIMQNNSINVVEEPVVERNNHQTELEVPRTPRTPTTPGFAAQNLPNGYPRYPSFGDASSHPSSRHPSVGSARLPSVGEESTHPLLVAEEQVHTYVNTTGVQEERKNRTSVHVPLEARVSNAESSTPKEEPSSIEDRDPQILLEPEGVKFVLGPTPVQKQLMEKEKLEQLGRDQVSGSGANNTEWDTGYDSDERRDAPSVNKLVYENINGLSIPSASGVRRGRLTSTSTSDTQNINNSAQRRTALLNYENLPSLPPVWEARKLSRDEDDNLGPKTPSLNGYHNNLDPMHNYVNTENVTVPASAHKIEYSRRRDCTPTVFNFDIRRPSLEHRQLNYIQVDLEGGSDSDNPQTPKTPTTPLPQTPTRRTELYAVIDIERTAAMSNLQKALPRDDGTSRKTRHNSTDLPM
Experimental: By way of chemical synthesis we received the specified compounds. Stomach cancer cells Snu16 expressing FGFR2 were cultivated according to the standard method. A part of the cells was left for negative control, FGF-2 was added to the other part (positive control). Therapeutic groups included: addition of the inhibitor according to formula V and subsequent stimulation of FGF-2, addition of the inhibitor according to formula IX and subsequent stimulation of FGF-2, addition of the inhibitor according to formula XI and subsequent stimulation of FGF-2. The Western-blotting method was used for assessment of the phosphorylation level of various kinases.

PI3K = experiment: Western blotting of PI3K phosphorylation in HUVEC, Caki-1, KATO III cells; assay type: cell-based; conditions: P=0.017
Experimental: (§1) According to the procedure described above, the phosphorylation levels of type 1-3 fibroblast growth factor receptors, FRS2, and also phosphorylation levels of VEGFR1 and intracellular kinases PI3K, p44/42(MAPK), Akt, mTOR were analyzed by the Western-blotting method.
(§2) Endothelial cells HUVEC, human renal cell carcinoma of Caki-1 type, stomach cancer cells KATO III were used in the research. All the mentioned cells expressed various types of the mentioned receptors. Just like in Example 5, a part of the cells stimulated FGF-2 and/or VEGF-A, a part of the cells was cultivated with the inhibitor described by Formula VIII, a part of the cells left without stimulation and treatment.

FGFR2 [3] = molecular target: FGFR2 (Homo sapiens, UniProt P21802); experiment: Western blotting of FGFR2 phosphorylation in HUVEC, Caki-1, KATO III cells; assay type: cell-based
Chain of FGFR2 (Homo sapiens, UniProt P21802) (P21802 22-821, species assumed): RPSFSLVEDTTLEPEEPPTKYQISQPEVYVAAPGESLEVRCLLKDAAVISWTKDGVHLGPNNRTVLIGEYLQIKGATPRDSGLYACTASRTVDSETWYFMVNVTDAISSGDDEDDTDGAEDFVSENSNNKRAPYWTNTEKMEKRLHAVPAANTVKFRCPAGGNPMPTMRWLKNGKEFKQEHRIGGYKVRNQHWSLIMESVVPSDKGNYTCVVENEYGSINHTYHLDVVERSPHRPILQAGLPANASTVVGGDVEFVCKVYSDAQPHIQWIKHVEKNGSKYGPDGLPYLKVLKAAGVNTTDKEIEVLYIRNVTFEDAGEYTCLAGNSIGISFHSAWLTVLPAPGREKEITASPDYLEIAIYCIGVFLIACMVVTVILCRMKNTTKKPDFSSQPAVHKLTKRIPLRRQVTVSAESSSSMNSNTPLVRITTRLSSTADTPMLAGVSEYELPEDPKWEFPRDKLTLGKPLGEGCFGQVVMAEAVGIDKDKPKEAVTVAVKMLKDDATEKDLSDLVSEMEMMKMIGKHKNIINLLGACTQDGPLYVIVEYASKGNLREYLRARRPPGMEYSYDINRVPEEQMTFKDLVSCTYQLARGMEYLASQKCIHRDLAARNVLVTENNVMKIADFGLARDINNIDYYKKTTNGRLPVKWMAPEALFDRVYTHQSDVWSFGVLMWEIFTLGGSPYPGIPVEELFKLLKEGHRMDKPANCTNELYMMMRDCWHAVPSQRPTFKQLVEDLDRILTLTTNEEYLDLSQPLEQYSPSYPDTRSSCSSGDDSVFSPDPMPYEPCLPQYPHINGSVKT
Experimental: as §1, §2

FGFR3 = molecular target: T2, FGFR3 (Homo sapiens, UniProt P22607); experiment: Western blotting of FGFR3 phosphorylation in HUVEC, Caki-1, KATO III cells; assay type: cell-based
T2 construct: endogenous in cells; host or cells: HUVEC, Caki-1, KATO III
T2 sequence (P22607 23-806): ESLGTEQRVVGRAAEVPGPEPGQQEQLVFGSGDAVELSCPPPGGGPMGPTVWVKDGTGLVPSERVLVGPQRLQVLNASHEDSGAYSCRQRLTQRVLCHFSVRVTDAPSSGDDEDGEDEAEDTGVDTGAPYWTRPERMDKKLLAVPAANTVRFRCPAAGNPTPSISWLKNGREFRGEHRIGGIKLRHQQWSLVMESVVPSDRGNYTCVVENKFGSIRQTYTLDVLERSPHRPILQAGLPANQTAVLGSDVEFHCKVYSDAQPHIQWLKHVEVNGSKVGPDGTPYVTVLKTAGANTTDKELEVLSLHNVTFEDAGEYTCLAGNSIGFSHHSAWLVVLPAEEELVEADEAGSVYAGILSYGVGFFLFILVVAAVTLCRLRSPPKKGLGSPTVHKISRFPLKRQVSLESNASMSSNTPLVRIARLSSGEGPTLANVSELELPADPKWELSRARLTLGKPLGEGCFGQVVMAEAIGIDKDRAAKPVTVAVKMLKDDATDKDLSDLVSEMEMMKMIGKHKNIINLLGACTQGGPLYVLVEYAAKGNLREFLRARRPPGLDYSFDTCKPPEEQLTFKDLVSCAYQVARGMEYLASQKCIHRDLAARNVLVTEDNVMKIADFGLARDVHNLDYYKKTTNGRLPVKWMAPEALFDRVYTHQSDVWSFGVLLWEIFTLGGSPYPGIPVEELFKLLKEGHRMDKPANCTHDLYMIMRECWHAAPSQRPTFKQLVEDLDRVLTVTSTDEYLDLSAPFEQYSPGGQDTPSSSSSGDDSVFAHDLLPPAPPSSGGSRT
Experimental: as §1, §2

VEGFR1 = molecular target: T3, VEGFR1 (Homo sapiens, UniProt P17948); experiment: Western blotting of VEGFR1 phosphorylation in HUVEC, Caki-1, KATO III cells; assay type: cell-based
T3 construct: endogenous in cells; host or cells: HUVEC, Caki-1, KATO III
T3 sequence (P17948 27-1338): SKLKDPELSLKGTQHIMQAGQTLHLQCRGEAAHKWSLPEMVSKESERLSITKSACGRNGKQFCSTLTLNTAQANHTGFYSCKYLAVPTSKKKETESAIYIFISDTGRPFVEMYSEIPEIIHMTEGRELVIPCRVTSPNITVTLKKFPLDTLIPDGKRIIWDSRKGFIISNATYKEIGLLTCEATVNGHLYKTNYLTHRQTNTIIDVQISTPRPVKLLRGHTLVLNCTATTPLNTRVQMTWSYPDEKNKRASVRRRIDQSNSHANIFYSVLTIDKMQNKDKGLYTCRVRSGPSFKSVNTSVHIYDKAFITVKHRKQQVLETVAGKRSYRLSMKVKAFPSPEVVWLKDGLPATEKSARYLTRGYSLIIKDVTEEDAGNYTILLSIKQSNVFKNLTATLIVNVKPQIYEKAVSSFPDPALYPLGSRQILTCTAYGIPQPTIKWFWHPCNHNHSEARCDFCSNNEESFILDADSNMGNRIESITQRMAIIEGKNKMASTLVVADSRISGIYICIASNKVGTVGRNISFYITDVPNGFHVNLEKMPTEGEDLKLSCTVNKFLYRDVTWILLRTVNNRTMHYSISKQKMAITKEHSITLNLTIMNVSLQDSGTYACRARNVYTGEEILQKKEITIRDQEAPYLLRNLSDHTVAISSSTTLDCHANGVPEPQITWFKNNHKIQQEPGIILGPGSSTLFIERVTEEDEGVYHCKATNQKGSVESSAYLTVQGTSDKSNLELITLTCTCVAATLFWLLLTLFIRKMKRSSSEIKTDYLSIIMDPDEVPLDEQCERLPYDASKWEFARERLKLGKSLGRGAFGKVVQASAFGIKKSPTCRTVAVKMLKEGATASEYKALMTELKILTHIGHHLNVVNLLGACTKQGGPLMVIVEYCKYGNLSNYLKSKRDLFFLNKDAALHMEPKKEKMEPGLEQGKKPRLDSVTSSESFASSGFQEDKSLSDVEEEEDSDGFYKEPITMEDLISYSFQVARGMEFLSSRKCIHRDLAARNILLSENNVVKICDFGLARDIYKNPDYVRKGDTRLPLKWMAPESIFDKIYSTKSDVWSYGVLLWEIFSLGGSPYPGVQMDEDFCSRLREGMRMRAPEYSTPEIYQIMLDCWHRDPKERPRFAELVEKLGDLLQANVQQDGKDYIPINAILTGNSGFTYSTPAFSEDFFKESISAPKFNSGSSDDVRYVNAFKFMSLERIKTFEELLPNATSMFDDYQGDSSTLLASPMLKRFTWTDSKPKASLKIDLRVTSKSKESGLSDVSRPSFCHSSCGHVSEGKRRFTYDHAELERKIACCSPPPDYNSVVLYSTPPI
Experimental: as §1, §2

FGFR1 = molecular target: T4, FGFR1 (Homo sapiens, UniProt P11362); experiment: Western blotting of FGFR1 phosphorylation in HUVEC, Caki-1, KATO III cells; assay type: cell-based
T4 construct: endogenous in cells; host or cells: HUVEC, Caki-1, KATO III
T4 sequence (P11362 22-822): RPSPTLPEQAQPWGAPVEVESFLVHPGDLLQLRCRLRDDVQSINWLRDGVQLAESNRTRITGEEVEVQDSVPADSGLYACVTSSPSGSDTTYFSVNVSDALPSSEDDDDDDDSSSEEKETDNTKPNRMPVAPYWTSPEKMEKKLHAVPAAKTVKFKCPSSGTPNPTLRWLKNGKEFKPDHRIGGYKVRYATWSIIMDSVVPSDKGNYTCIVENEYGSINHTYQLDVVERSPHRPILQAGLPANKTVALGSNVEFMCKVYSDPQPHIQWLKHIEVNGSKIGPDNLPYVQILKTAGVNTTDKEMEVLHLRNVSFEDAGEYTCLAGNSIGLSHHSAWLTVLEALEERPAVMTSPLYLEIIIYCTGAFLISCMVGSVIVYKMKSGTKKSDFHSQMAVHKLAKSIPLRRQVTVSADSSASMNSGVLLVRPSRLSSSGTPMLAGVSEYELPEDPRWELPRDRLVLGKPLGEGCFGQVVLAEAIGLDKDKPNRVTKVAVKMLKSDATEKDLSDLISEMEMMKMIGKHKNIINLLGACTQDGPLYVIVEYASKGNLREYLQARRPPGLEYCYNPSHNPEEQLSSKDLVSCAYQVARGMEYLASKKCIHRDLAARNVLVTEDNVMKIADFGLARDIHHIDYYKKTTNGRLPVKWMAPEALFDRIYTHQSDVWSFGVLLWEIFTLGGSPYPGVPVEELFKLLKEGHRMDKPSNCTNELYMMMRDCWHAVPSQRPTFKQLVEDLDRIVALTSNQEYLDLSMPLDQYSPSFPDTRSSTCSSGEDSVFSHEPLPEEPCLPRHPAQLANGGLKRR
Experimental: as §1, §2

p44/42(MAPK), Akt, mTOR = experiment: Western blotting of other kinases in HUVEC, Caki-1, KATO III cells; assay type: cell-based
Experimental: as §1, §2

FRS2 [4] = molecular target: T1, FRS2; experiment: Western blotting of FRS2 phosphorylation in HUVEC, Caki-1, KATO III cells; assay type: cell-based; parameters: endogenous in cells; conditions: P=0.001
Experimental: as §1, §2

FGFR2 [5] = experiment: Automated Western blotting of FGFR2 phosphorylation in Snu16 cells; assay type: cell-based; conditions: 100 mcg/ml, FGF-2 stimulation
Experimental: (§3) Stomach cancer cells Snu16 were sawn in 96-cavity plates with a size of 90 mcl/cavity. After 24 hours of incubation in a damped incubator at a temperature of 37 C, 5% CO2 and 95% air to cells were the tested dissolved agent described by formula VI in the volume of 100 mcg/ml, and then FGF-2 was added as a stimulator.
(§4) After the days of cultivation by the method of automated Western-blotting, the phosphorylation level of the following proteins: FGFR2, FRS2α, FRS2β, Shp2, Grb2 was studied in the cells. After another 24 hours of the cultivation, the cells were counted.

FRS2α and FRS2β = experiment: Automated Western blotting of FRS2α and FRS2β phosphorylation in Snu16 cells; assay type: cell-based; conditions: FGF-2 stimulation
Experimental: as §3, §4

Shp2 and Grb2 = experiment: Automated Western blotting of Shp2 and Grb2 phosphorylation in Snu16 cells; assay type: cell-based; conditions: noted in some cells
Experimental: as §3, §4

Snu16 cells = experiment: Proliferation of stomach cancer cells Snu16 (cell count); assay type: cell-based
Experimental: as §3, §4
After the next cultivation the number of the cells equaled between the groups, and also with the control (stimulation of FGF-2, without cultivation with the inhibitor). See the results in Table 1.

[6] = tested on: angiogenesis stimulated by bFGF; experiment: Matrigel implant angiogenesis stimulated by bFGF; assay type: in vivo, mice; conditions: Matrigel implants in mice; intraperitoneally day 0, 3, 6; RPT835 15 mg/kg, Bevacizumab 10 mg/kg
Experimental: (§5) Eighteen hybrid mice of the 1 generation F1 (C57B1/6×DBA/2), males with a weight of 22-30 g are used in the research. The mice (nomenclature number M02.13.00011) were received from a branch of nursery “Stolbovaya”. The method described earlier was used in the experiment [Passaniti A., 1992]. The control and experiment groups had at least 3 mice. Aliquots (1,000 mcl) of Matrigel (BD Biosciences) containing heparin 60 conventional units/ml, VEGF (200 ng/ml, BD Biosciences) or bFGF (100 ng/ml, BD Biosciences) were prepared on ice. Matrigel containing heparin 60 conventional units/ml was used as negative control. Matrigel was injected in the mice subcutaneously into the side part of the back. After injection, Matrigel quickly forms single, hard gel-like implant. A weight of the inhibitor was dissolved in DMSO to concentration of 10^−2M. Aliquots were frozen down to −20° C. and unfrozen immediately before injection. Refreezing of the solution was not allowed. The tested and standard objects were administered intraperitoneally on the 0, 3 and 6 day of Matrigel impintation: Bevacizumab in a dose of 10 mg/kg and RPT835-15 mg/kg. Seven days after administration of Matrigel, the mice were put into sleep with diethyl ether to remove the implant. The implants were fixed for 24-36 hours in 10% neutral formalin and enclosed in paraffin for further histological research.

[7] = tested on: angiogenesis in the implants containing VEGF; experiment: Matrigel implant angiogenesis stimulated by VEGF; assay type: in vivo; conditions: Matrigel implants in mice; 10 mg/kg intraperitoneally day 0, 3, 6; p<0.001
Experimental: as §5

Molecule: Cc1cc2c(F)c(Oc3ncnn4cc(OC[C@@H](C)O)c(C)c34)ccc2[nH]1 [Brivanib, reference compound]
pIC50 (HUVEC): 6.54

Molecule: Cc1cc([N+](=O)[O-])c(NS(=O)(=O)c2cccc(C(=O)O)c2)cc1-c1cncnc1 [Inhibitor III, 3-(N-(4-methyl-2-nitro-5-(pyrimidin-5-yl)phenyl)sulfamoyl)benzoic acid]
tissue findings (infiltration) [1]: Only insignificant infiltration with single neutrophils

Molecule: CC1C(=O)Nc2ccccc2N1C(=O)c1cccc(C(=O)O)c1 (stereo not drawn) [Inhibitor IX, 3-(2-methyl-3-oxo-1,2,3,4-tetrahydroquinoxalyne-1-carbonyl)benzoic acid]
pIC50 (HUVEC): 7.49 | transmission of the signal from FGFR to FRS2 (FRS2 [2]): interfere with transmission of the signal from FGFR to FRS2

Molecule: Cc1cc(N)c(NS(=O)(=O)c2cccc(C(=O)O)c2)cc1-c1cncnc1 [Inhibitor V, 3-(N-(2-amino-4-methyl-5-(pyrimidin-5-yl)phenyl)sulfamoyl)benzoic acid]
transmission of the signal from FGFR to FRS2 (FRS2 [2]): interfere with transmission of the signal from FGFR to FRS2

decrease of phosphorylation of FGFR2 (weakly) (FGFR2 [3]): 1.5 times | decrease of phosphorylation of FGFR3 (weakly) (FGFR3): 1.8 times | decrease of phosphorylation of VEGFR1 (weakly) (VEGFR1): 2.3 times | level of FGFR1 phosphorylation (FGFR1): even increased | decrease of phosphorylation of FRS2 (FRS2 [4]): 14 times
Molecule: O=C1CN(C(=O)c2cccc(C(=O)O)c2)c2ccccc2N1 [Inhibitor VIII, 3-(3-oxo-1,2,3,4-tetrahydroquinoxaline-1-carbonyl)benzoic acid]
decrease of phosphorylation of PI3K (PI3K): 10 times | influence on other kinases (p44/42(MAPK), Akt, mTOR): did not have influence on other kinases

pIC50 (FRS2α and FRS2β): > 8.00
Molecule: Cc1cc(NNc2cc(C)c(-c3cccnc3)cc2NS(=O)(=O)c2cccc(C(=O)O)c2)c(NS(=O)(=O)c2cccc(C(=O)O)c2)cc1-c1cccnc1 [Inhibitor VI]
phosphorylation of FGFR2 (FGFR2 [5]): did not suppress | suppression of phosphorylation of FRS2α and FRS2β (FRS2α and FRS2β): 12 times | suppression of Shp2 and Grb2 protein phosphorylation (Shp2 and Grb2): more than 10 times | proliferation compared with control group (Snu16 cells; group with phosphorylation suppression of FRS2 and Shp2 and/or Grb2, P < 0.0001): suppression, | proliferation compared with control group (Snu16 cells; group with phosphorylation suppression of FRS2 and without influence on phosphorylation of Shp2 and/or Grb2, P < 0.0001): suppression,

Molecule: O=C(O)c1cccc(Nc2cccc3ncccc23)c1 [Inhibitor XI, 3-(quinoline-5-ylamine)benzoic acid]
transmission of the signal from FGFR to FRS2 (FRS2 [2]): interfere with transmission of the signal from FGFR to FRS2

Molecule: Bevacizumab: standard object blocking VEGF-stimulated angiogenesis, 10 mg/kg [reference compound]
angiogenesis stimulated by bFGF [6]: but not angiogenesis induced by bFGF | angiogenesis in the implants containing VEGF [7]: completely blocked
